The results in this text go back to US20240034731A1, “AZA-QUINAZOLINE COMPOUNDS AND METHODS OF USE” (Iambic Therapeutics, Inc., priority 2022, published 2024).

SMILES strings stand for the structures. Read-outs that look alike come from different tables or passages of the source. Some results are limits rather than exact numbers.

One test addresses CDK1/Cyclin B1 (Homo sapiens (Human), UniProt P06493). Put plainly: CDK1/Cyclin B1 ADP-Glo Kinase Assay. In kind it is biochemical. In a few lines:
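ADP-Glo luminescent readout of ADP production, with IC50 fitted by a four-parameter equation to fractional velocity against inhibitor concentration. Reaction started with ATP-containing substrate after a 30-minute enzyme–inhibitor pre-incubation and stopped after 90 minutes, both at room temperature.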
(ADP-Glo turns the ADP formed in a reaction into a luminescent signal.)

The next test has as its target CDK2/Cyclin E1 (Homo sapiens (Human), UniProt P24941). Put plainly: CDK2/Cyclin E1 Full length ADP-Glo Kinase Assay. It is filed as biochemical. As to conditions: 20 uM ATP, read-out: CDK2/ CyclinE1 IC50. In a few lines: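 ADP-Glo luminescence (ATP depletion, then ADP-to-light conversion) quantified kinase turnover after a 90 min room-temperature reaction started by ATP/substrate, following 30 min enzyme–inhibitor preincubation. Enzyme: full-length CDK2/cyclin E1; IC50 fitted with a four-parameter equation on fractional velocity.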

The target in test [1] is T1, CDK4/Cyclin D1 (Homo sapiens (Human), UniProt P11802). Put plainly: CDK4/Cyclin D1 Mobility Shift Assay (MSA). It is filed as biochemical. To be noted: 0.2 mM ATP, read-out: CDK4/ CyclinD1 MSA IC50. From the text: CDK4/Cyclin D1 Mobility Shift Assay (MSA)
T1 sequence (P11802 whole entry): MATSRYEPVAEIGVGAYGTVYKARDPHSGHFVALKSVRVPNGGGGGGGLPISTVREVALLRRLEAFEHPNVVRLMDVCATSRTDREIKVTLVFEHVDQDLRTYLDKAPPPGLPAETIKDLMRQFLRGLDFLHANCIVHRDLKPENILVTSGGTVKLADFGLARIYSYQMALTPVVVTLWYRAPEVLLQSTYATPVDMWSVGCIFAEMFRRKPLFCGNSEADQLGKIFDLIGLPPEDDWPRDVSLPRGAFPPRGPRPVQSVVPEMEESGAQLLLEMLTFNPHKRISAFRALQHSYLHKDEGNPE
T1 sequence (P24385 whole entry partner): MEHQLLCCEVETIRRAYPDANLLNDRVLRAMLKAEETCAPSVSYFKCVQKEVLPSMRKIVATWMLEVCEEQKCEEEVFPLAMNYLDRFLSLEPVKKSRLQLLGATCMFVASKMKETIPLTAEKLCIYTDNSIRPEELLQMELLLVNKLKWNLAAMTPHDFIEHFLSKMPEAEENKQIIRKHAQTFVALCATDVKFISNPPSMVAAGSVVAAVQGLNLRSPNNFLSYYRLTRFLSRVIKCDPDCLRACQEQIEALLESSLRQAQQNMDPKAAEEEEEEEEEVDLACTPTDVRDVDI
The purpose CDK4/Cyclin D1 assay is to evaluate the inhibition (% inhibition and IC50 values) in the presence of small molecule inhibitors by using a fluorescence based microfluidic mobility shift assay. CDK4/Cyclin D1 catalyzes the production of ADP from ATP that accompanies the phosphoryl transfer to the substrate peptide 5-FAM-Dyrktide (5-FAM-[…]) (Perkin Elmer Peptide 34). The mobility shift assay (MSA) electrophoretically separates the fluorescently labelled peptides (substrate and phosphorylated product) following the kinase reaction. Both substrate and product are measured, and the ratio of these values is used to generate % conversion of substrate to product by the LabChip EZ Reader. Typical reaction solutions contained 2% DMSO (+/− inhibitor), 10 mM MgCl2, 1 mM EGTA, 0.05% BSA, 2 mM DTT, 0.2 mM ATP, 0.01% Brig-35, 1.5 uM 5-FAM-Dyrktide, 2.5 nM CDK4/Cyclin D1 in 50 mM HEPES buffer at pH 7.5. The reaction was initiated with the addition of substrate solution, following a 30-minute pre-incubation of enzyme and inhibitor at 22° C. in the reaction mix. The reaction was stopped after 180 minutes by the addition of 75 uL of 500 mM EDTA and measured on a Perkin Elmer EZ reader instrument. IC50 determinations were made from a plot of the fractional velocity as a function of inhibitor concentration fit to the 4 parameters IC50 equation.

The next test deals with CDK6/Cyclin D3 (Homo sapiens (Human), UniProt Q00534). Put plainly: CDK6/Cyclin D3 ADP-Glo Kinase Assay. It is filed as biochemical. As to conditions: 100 uM ATP, read-out: CDK6/ CyclinD3 IC50. In short, it runs like this:
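ADP-Glo luminescence measured ADP produced by CDK6/Cyclin D3 in a 90-min room-temperature reaction started with ATP-containing substrate, after 30-min enzyme–inhibitor pre-incubation. Fractional velocity was plotted against inhibitor concentration and fitted to a four-parameter IC50 model.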

Test [2] has as its target T1, CDK4/Cyclin D1. Put plainly: CDK4/Cyclin D1 CHEF Assay (AQT0258 peptide). As to conditions: 200 uM ATP, read-out: CDK4/ CyclinD1 AQT IC50. It is filed as biochemical. In a few lines: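 Sox-labelled peptide AQT0258 phosphorylation read as chelation-enhanced fluorescence (ex 360/em 485 nm) with Mg(II). Enzyme preincubated with inhibitor 30 min at 22°C, substrate added, 3 h at 22°C; IC50 from four-parameter fit of fractional velocity versus inhibitor concentration.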

The next test deals with MCF-7 cells. Put plainly: Cell Growth Inhibition, MCF-7 (CellTiterGlo, 6 days). It is filed as cell-based. As to conditions: Homo sapiens, MCF7, 144 h, MCF-7, 6-day treatment. In a few lines: (§1)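 IC50 from four-parameter, variable-slope fits of % growth inhibition, derived from CellTiterGlo 2.0 luminescence relative to control. Compounds, usually 10-10,000 nM in half-log steps, stayed 6 days at 37 °C, 5% CO2 with 500 MCF-7 or OVCAR-3 cells/well in 10% FBS RPMI.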
On the technique in general: ATP-based viability assays read luminescence as a measure of living cells.

Another test concerns OVCAR-3 cells. Put plainly: Cell Growth Inhibition, OVCAR-3 (CellTiterGlo, 6 days). It is filed as cell-based. As to conditions: Homo sapiens, 144 h, OVCAR-3, 6-day treatment. In a few lines: as §1
Where [3] appears, read: ADP-Glo, 80 uM ATP, read-out: CDK1 Cyclin B1 IC50.

Chain of CDK1/Cyclin B1 (P06493 whole entry): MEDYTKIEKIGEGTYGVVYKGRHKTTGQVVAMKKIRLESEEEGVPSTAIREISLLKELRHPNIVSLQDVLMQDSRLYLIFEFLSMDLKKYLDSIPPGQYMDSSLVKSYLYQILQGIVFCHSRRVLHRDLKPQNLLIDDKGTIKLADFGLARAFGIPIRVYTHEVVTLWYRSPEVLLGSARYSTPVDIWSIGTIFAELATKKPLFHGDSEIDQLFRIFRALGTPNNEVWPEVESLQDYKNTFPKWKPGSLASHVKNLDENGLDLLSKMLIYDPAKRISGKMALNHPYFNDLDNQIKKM
Chain of CDK1/Cyclin B1 (P14635 whole entry partner): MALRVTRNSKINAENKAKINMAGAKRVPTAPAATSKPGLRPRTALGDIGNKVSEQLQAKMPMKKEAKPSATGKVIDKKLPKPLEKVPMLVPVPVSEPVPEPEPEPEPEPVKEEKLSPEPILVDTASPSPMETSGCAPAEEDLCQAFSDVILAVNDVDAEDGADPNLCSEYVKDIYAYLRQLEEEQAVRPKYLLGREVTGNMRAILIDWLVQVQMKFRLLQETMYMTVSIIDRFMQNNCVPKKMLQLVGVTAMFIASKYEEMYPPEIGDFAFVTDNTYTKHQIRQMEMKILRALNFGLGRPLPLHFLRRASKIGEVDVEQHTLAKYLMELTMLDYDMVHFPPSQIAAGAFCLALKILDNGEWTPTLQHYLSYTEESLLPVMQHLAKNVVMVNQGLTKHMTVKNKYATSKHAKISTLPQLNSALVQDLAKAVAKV
Chain of CDK6/Cyclin D3 (Q00534 whole entry): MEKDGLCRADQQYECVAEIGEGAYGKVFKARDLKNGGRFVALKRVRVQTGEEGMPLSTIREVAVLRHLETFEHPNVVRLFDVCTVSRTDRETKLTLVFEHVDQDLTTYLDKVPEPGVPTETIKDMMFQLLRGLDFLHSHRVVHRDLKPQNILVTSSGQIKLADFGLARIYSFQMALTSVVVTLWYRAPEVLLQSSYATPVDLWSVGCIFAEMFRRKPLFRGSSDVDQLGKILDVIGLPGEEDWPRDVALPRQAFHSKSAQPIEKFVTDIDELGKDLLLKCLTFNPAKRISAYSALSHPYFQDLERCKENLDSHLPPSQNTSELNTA
Chain of CDK6/Cyclin D3 (P30281 whole entry partner): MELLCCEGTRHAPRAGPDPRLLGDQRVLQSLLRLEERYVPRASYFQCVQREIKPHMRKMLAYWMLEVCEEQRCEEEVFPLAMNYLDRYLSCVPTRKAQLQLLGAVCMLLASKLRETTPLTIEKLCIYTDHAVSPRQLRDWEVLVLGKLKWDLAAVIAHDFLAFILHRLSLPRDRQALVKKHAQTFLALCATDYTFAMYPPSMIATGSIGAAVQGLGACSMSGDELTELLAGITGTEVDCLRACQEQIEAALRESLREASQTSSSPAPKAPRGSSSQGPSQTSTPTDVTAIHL

With `CCN1CC2(C1)CN(c1ccc(Nc3ncc4ccnc(N5CCC6(C5)CC6(F)F)c4n3)nc1)C2` (stereo not shown) [Compound 21, 8-(1,1-difluoro-5-azaspiro[2.4]heptan-5-yl)-N-(5-(6-ethyl-2,6-diazaspiro[3.3]heptan-2-yl)pyridin-2-yl)pyrido[3,4-d]pyrimidin-2-amine], the IC50 on CDK1/Cyclin B1 (setting [3]) was over 2000 nM; at CDK2/Cyclin E1 it was 200 to 500 nM; on CDK4/Cyclin D1 [1] it was under 200 nM; on CDK6/Cyclin D3 it was under 200 nM.
Take `Cc1cc2cnc(NC3CCN(S(C)(=O)=O)CC3)nc2c(N2CC(O)(C(F)F)C2)n1` [Compound 91, 3-(difluoromethyl)-1-(6-methyl-2-((1-(methylsulfonyl)piperidin-4-yl)amino)pyrido[3,4-d]pyrimidin-8-yl)azetidin-3-ol]: the IC50 on CDK1/Cyclin B1 (setting [3]) is under 200 nM; on CDK2/Cyclin E1, under 200 nM; at CDK4/Cyclin D1 [2], under 200 nM; on CDK6/Cyclin D3, under 200 nM; with MCF-7 cells it was 500 to 2000 nM; in the test on OVCAR-3 cells, 200 to 500 nM.
Regarding `Cc1cc2cnc(NC3CCN(S(C)(=O)=O)CC3)nc2c(N2CC(F)(F)C3(CNC3)C2)n1` [Compound 92, 8-(8,8-difluoro-2,6-diazaspiro[3.4]octan-6-yl)-6-methyl-N-(1-(methylsulfonyl)piperidin-4-yl)pyrido[3,4-d]pyrimidin-2-amine], the IC50 on CDK1/Cyclin B1 (setting [3]) was under 200 nM; on CDK2/Cyclin E1, under 200 nM; at CDK4/Cyclin D1 [2], under 200 nM; on CDK6/Cyclin D3, under 200 nM; in the test on MCF-7 cells it was 500 to 2000 nM; in the test with OVCAR-3 cells, 500 to 2000 nM.
`Cc1cc2cnc(NC3CCN(S(C)(=O)=O)CC3)nc2c(C2CC(O)(C(F)F)C2)n1` (stereo not shown) [Compound 93, 1-(difluoromethyl)-3-(6-methyl-2-((1-(methylsulfonyl)piperidin-4-yl)amino)pyrido[3,4-d]pyrimidin-8-yl)cyclobutan-1-ol]: the IC50 at CDK1/Cyclin B1 (setting [3]) was under 200 nM; on CDK2/Cyclin E1, under 200 nM; on CDK4/Cyclin D1 [2], under 200 nM; at CDK6/Cyclin D3, under 200 nM; in the test on MCF-7 cells, 500 to 2000 nM; in the test with OVCAR-3 cells, 500 to 2000 nM.
For the compound `Cc1cc2cnc(NC3CCN(S(=O)(=O)c4ccn(C)n4)CC3)nc2c(N2CC(F)(F)C3(CNC3)C2)n1` [Compound 94, 8-(8,8-difluoro-2,6-diazaspiro[3.4]octan-6-yl)-6-methyl-N-(1-((1-methyl-1H-pyrazol-3-yl)sulfonyl)piperidin-4-yl)pyrido[3,4-d]pyrimidin-2-amine], the IC50 was under 200 nM on CDK1/Cyclin B1 (setting [3]); under 200 nM on CDK2/Cyclin E1; under 200 nM at CDK4/Cyclin D1 [2]; under 200 nM on CDK6/Cyclin D3; 500 to 2000 nM with MCF-7 cells; 200 to 500 nM with OVCAR-3 cells.
In the case of `CCS(=O)(=O)N1CCC(Nc2ncc3cc(C)nc(N4CC(F)(F)C5(CNC5)C4)c3n2)CC1` [Compound 95, 8-(8,8-difluoro-2,6-diazaspiro[3.4]octan-6-yl)-N-(1-(ethylsulfonyl)piperidin-4-yl)-6-methylpyrido[3,4-d]pyrimidin-2-amine], the IC50 is under 200 nM on CDK1/Cyclin B1 (setting [3]); under 200 nM on CDK2/Cyclin E1; under 200 nM at CDK4/Cyclin D1 [2]; under 200 nM at CDK6/Cyclin D3; 500 to 2000 nM in the test with MCF-7 cells; 500 to 2000 nM in the test on OVCAR-3 cells.
Consider `Cc1cc2cnc(NC3CCN(S(C)(=O)=O)CC3)nc2c(N2CC(F)(F)C3(CN(C)C3)C2)n1` [Compound 96, 8-(8,8-difluoro-2-methyl-2,6-diazaspiro[3.4]octan-6-yl)-6-methyl-N-(1-(methylsulfonyl)piperidin-4-yl)pyrido[3,4-d]pyrimidin-2-amine], for which the IC50 is under 200 nM at CDK1/Cyclin B1 (setting [3]); under 200 nM on CDK2/Cyclin E1; under 200 nM at CDK4/Cyclin D1 [2]; under 200 nM at CDK6/Cyclin D3; 200 to 500 nM with MCF-7 cells; 500 to 2000 nM with OVCAR-3 cells.
In the case of `Cc1cc2cnc(NC3CCN(S(=O)(=O)c4cnn(C)c4)CC3)nc2c(N2CC(F)(F)C3(CN(C)C3)C2)n1` [Compound 97, 8-(8,8-difluoro-2-methyl-2,6-diazaspiro[3.4]octan-6-yl)-6-methyl-N-(1-((1-methyl-1H-pyrazol-4-yl)sulfonyl)piperidin-4-yl)pyrido[3,4-d]pyrimidin-2-amine], the IC50 against CDK1/Cyclin B1 is under 200 nM; on CDK2/Cyclin E1 it was under 200 nM; at CDK4/Cyclin D1 [2], under 200 nM; at CDK6/Cyclin D3, under 200 nM; with MCF-7 cells, 500 to 2000 nM; in the test on OVCAR-3 cells, 200 to 500 nM.
Regarding `[2H]C([2H])([2H])N1CC2(CN(c3nc(C)cc4cnc(NC5CCN(S(=O)(=O)c6cnn(C)c6)CC5)nc34)CC2(F)F)C1` [Example 11, 8-(8,8-difluoro-2-(methyl-d3)-2,6-diazaspiro[3.4]octan-6-yl)-6-methyl-N-(1-((1-methyl-1H-pyrazol-4-yl)sulfonyl)piperidin-4-yl)pyrido[3,4-d]pyrimidin-2-amine], the IC50 at CDK1/Cyclin B1 is under 200 nM; at CDK2/Cyclin E1 it was under 200 nM; at CDK4/Cyclin D1 [2], under 200 nM; at CDK6/Cyclin D3, under 200 nM; with MCF-7 cells, 500 to 2000 nM; in the test on OVCAR-3 cells, 200 to 500 nM.
Turning to `Cc1cc2cnc(NC3CCN(S(=O)(=O)C4CC4)CC3)nc2c(N2CC3(CCNC3)C2)n1` [Example 25, N-(1-(cyclopropylsulfonyl)piperidin-4-yl)-6-methyl-8-(2,6-diazaspiro[3.4]octan-2-yl)pyrido[3,4-d]pyrimidin-2-amine], the IC50 is 200 to 500 nM on CDK1/Cyclin B1 (setting [3]); under 200 nM at CDK2/Cyclin E1; under 200 nM at CDK4/Cyclin D1 [2]; under 200 nM on CDK6/Cyclin D3; 200 to 500 nM in the test with MCF-7 cells; 200 to 500 nM with OVCAR-3 cells.
Turning to `Cc1cc2cnc(Nc3cc4c(cc3F)CN(S(C)(=O)=O)C4)nc2c(N2CC3(CCNC3)C2)n1` [Example 39, N-(6-fluoro-2-(methylsulfonyl)isoindolin-5-yl)-6-methyl-8-(2,6-diazaspiro [3.4]octan-2-yl)pyrido[3,4-d]pyrimidin-2-amine], the IC50 at CDK1/Cyclin B1 (setting [3]) is over 2000 nM; at CDK2/Cyclin E1, under 200 nM; at CDK4/Cyclin D1 [2], 200 to 500 nM; at CDK6/Cyclin D3, over 2000 nM; in the test with MCF-7 cells, 500 to 2000 nM; in the test on OVCAR-3 cells, over 2000 nM.
As to `Cc1cc2cnc(NC3CCN(S(=O)(=O)CC4CCCC4)CC3)nc2c(N2CC3(CCNC3)C2)n1` [Example 51, N-(1-((cyclopentylmethyl)sulfonyl)piperidin-4-yl)-6-methyl-8-(2,6-diazaspiro[3.4]octan-2-yl)pyrido[3,4-d]pyrimidin-2-amine], the IC50 at CDK1/Cyclin B1 (setting [3]) is 500 to 2000 nM; at CDK2/Cyclin E1 it was under 200 nM; at CDK4/Cyclin D1 [2], under 200 nM; on CDK6/Cyclin D3, 200 to 500 nM; in the test with MCF-7 cells, 500 to 2000 nM; with OVCAR-3 cells, 500 to 2000 nM.
As to `CS(=O)(=O)N1CCC(Nc2ncc3cc(C4CC4)nc(N4CC(F)(F)C5(CNC5)C4)c3n2)CC1` [Example 60, 6-cyclopropyl-8-(8,8-difluoro-2,6-diazaspiro[3.4]octan-6-yl)-N-(1-(methylsulfonyl)piperidin-4-yl)pyrido[3,4-d]pyrimidin-2-amine], the IC50 at CDK1/Cyclin B1 (setting [3]) is under 200 nM; on CDK2/Cyclin E1 it was under 200 nM; on CDK4/Cyclin D1 [2], under 200 nM; on CDK6/Cyclin D3 it was under 200 nM; with MCF-7 cells, 500 to 2000 nM; with OVCAR-3 cells, over 2000 nM.
Regarding `Cc1cc2cnc(NC3CCN(S(=O)(=O)C4CC4)CC3)nc2c(N2CC(F)(F)C3(CNC3)C2)n1` [Example 62, N-(1-(cyclopropylsulfonyl)piperidin-4-yl)-8-(8,8-difluoro-2,6-diazaspiro[3.4]octan-6-yl)-6-methylpyrido[3,4-d]pyrimidin-2-amine], the IC50 on CDK1/Cyclin B1 (setting [3]) is under 200 nM; on CDK2/Cyclin E1, under 200 nM; at CDK4/Cyclin D1 [2] it was under 200 nM; on CDK6/Cyclin D3, under 200 nM; with MCF-7 cells, 500 to 2000 nM; with OVCAR-3 cells, 500 to 2000 nM.
